The text below walks through data of patent US20220401482A1, “GENERATION OF CD38 KNOCK-OUT PRIMARY AND EXPANDED HUMAN NK CELLS” (RESEARCH INSTITUTE AT NATIONWIDE CHILDREN'S HOSPITAL, priority 2019, published 2022).

Series [1] has as its system CD38 on NK cells. Description: CD38 expression on NK cells after ex vivo ATRA. The series is classed as cell-based, human. The note with it: 50 nM, 48 hours. As for the experimental part:
(§1) FIGS. 15A-15B show cytotoxicity and DARA-mediated ADCC activity of paired CD38^WT and CD38^KO NK cells against myeloma cell lines pretreated with 50 nM ATRA for 48 hours (mean±SD). […] Frozen peripheral blood mononuclear cells were thawed and analyzed at once. […] Control and ATRA treated samples are shown with black and gray line respectively. Unstained controls are depicted with filled histogram. […] FIGS. 15F-15G Cytotoxicity and DARA-mediated ADCC activity of paired CD38^WT and CD38^KO NK cells against myeloma cell lines in a 48 hour-cytotoxicity assay in the presence of 50 nM ATRA or solvent control. E:T ratio is 0.25:1 for MM.1S and 0.5:1 for KMS-11 (mean±SD).

Series [2] has as its system MM cell lines. Description: Flow-based cytotoxicity / ADCC assay. Type of series: cell-based, human. How it is done:
NK function assays. NK cell conjugation assay was performed as previously published and as detailed above. To quantify fratricide, CD38^WT and CD38^KO NK cells were each treated with 10 μg/ml of DARA or solvent control for 4 or 24 hours, then stained with PO-PRO™-1 dye (Invitrogen, Eugene, Oreg.) and 7-aminoactinomycin D (7-AAD) (Invitrogen, Eugene, Oreg.)^15. Flow-based killing assays were performed as detailed in Supplemental Methods. In brief, CD38^WT or CD38^KO NK cells were co-cultured with CFSE-labeled target MM cells for 4 or 24 hours in the presence of 10 μg/ml of DARA or solvent as control.
(§2) To assess ADCC, MM cell lines or purified primary CD138^+ MM cells were labeled with 5 μM of CFSE and co-cultured with CD38^WT or CD38^KO NK cells at the indicated effector-to-target (E:T) ratios in flat bottom 96-well plates (Falcon, USA) in the presence of 10 μg/ml of DARA or solvent as control^38. […] The viability of target cells was analyzed after 4 hours for MM cell lines, and 24 hours for primary samples. In some experiments, myeloma cell lines were pretreated with 50 nM of ATRA for 2 days prior to 4-hour cytotoxicity assay. To study the effect of ATRA on overall DARA-mediated NK cell cytotoxicity, MM cells and NK cells were co-cultured for 48 hours in the presence of DARA and 50 nM of ATRA. Viable target cells were assessed from the percent or absolute number of 7-AAD negative/CFSE positive cells among total CFSE positive cells or using beads. Background was determined from the target cells incubated in the absence of effector cells and DARA. The percentage of DARA-mediated ADCC (%) was calculated according to the formula: (1−the percent or absolute number of viable target cells in the presence of effector cells with DARA/that of the corresponding sample with solvent control)×100. All assays were performed in triplicate with 2 or 3 independent donors.

For series [3], the system named is CD38 on NK cells. In words: CD38 expression on PB-NK of APL patients during ATRA treatment. Type of series: in vivo, human. The settings on record: consolidation therapy, versus prior to treatment. As for the experimental part: as §1
Series [4] has as its system NK cells. In words: NK cell fratricide assay (viability of NK cells treated with anti-CD38 antibody). The series is classed as cell-based, human. The note with it: DARA 48 hours with 50 nM ATRA. As for the experimental part: NK function assays. NK cell conjugation assay was performed as previously published and as detailed above. […] Flow-based killing assays were performed as detailed in Supplemental Methods. In brief, CD38^WT or CD38^KO NK cells were co-cultured with CFSE-labeled target MM cells for 4 or 24 hours in the presence of 10 μg/ml of DARA or solvent as control.
[…] Viable NK cells (PO-PRO™-1 negative/7-AAD negative) were assessed based on the frequency or absolute number using beads (Becton Dickinson Biosciences).

The subject of series [5] is CD38 on MM cell lines. In words: CD38 expression on MM cell lines after ATRA. Type of series: cell-based, human. The settings on record: pretreatment, 50 nM, 48 hours. From the text:
Control and ATRA treated samples are shown with black and gray line respectively. Unstained controls are depicted with filled histogram.

The test system of series [6] is NK cells. The note with it: patients; cited from earlier work.
For series [7], the system named is H929 cell line. Description: Flow-based cytotoxicity assay. The note with it: absence of NK cells and complement, DARA 10 μg/ml, 4 hours. Type of series: cell-based, human. How it is done:
FIGS. 11A-11D show resistance of CD16^KO NK cells to DARA-induced fratricide.
as §2

[8] abbreviates: concurrent treatment of MM and NK cells, 50 nM, 48 hours.

Turning to `CC1=C(/C=C/C(C)=C/C=C/C(C)=C/C(=O)O)C(C)(C)CCC1` [ATRA, all-trans retinoic acid], in series [1], the “CD38 levels on CD38^KO NK cells” value is “not on the paired CD38^KO NK cells” and the “CD38 levels on CD38^WT NK cells” value is “up-regulates CD38 levels”. The “DARA-mediated ADCC” value in series [2] (MM cells pretreated with ATRA, both CD38^WT and CD38^KO NK cells) is “improves DARA-mediated ADCC”. In addition, in series [2] (setting [8]), the “DARA-mediated ADCC of CD38^KO NK cells” value is recorded as “no impact” and the “DARA-mediated ADCC of CD38^WT NK cells” value is “significantly impaired”. Also, the “direct cytotoxicity of CD38^WT and paired CD38^KO NK cells” value in series [2] (concurrent treatment, 50 nM, 48 hours) is given as “significantly reduced direct cytotoxicity”. The “CD38 on PB-NK of patients” value in series [3] is on record as “significant up-regulation of CD38”. Further, the “fratricide of CD38^WT NK cells” value in series [4] is recorded as “enhanced fratricide”. Besides, the “CD38 levels on MM target cells” value in series [5] is on record as “up-regulates CD38 levels”.
As to “DARA: monoclonal antibody targeting CD38”, the “persistence of decrease in circulating NK cells after discontinuation of treatment” value in series [6] was 3-6 months. The DARA-mediated lysis entry in series [7] was “no DARA-mediated lysis”.
